Results published in patent publication US7029863B2, “Cell culture system for determining the cholesterol efflux potential for serum” (The Children's Hospital of Philadelphia, priority 2001, dated 2006).

Columns and labels:
Format in all cases: cell-based
[1] = tested on: J774 mouse macrophages treated with cAMP to upregulate the expression of ABCA1; assay: Cell cholesterol efflux to supplemented human serum, J774 macrophages with ABCA1 upregulated by cAMP; conditions: human serum supplemented with increasing levels of the substance; 4 hour incubation; FIG. 1B
Procedure: (§1) FIG. 1B is a graph of the percentage of efflux of cell cholesterol after a four hour incubation period of J774 mouse macrophages treated with cAMP to upregulate the expression of ABCA1 with serum supplemented with HDL3 and serum supplemented with Apo AI. Numbers on X axis represent the fold increase of HDL3 or Apo AI with the X axis of 1 being the unsupplemented serum.
For example, in one embodiment of the present invention, an assay to quantitate the contribution of ABCA1 to cellular cholesterol efflux uses a sample of cells, such as transformed mouse macrophages which are grown in monolayers and prelabeled with ^3H-cholesterol. […] The release of the radiolabeled cholesterol is determined after an appropriate incubation time ranging from 1 to 12 hours. The ABCA1 contribution to efflux is determined by subtracting the efflux obtained in ABCA1 negative cultures from that obtained from the ABCA1 positive cultures.
FIGS. 1A–1F illustrate that the expression of SR-BI and ABCA1 independently in cultured cells can be used to detect cell cholesterol efflux to human sera with different levels of apolipoprotein AI, high density lipoprotein (HDL) or high density lipoprotein3 (HDL3). […] The control and supplemented serum samples were then diluted in tissue culture medium and incubated with the indicated cell systems; the efflux of cell cholesterol was measured after a 4 hour incubation period. […]

[2] = tested on: W138VA13 human embryonic lung fibroblasts; assay: Cell cholesterol efflux to supplemented human serum, untreated W138VA13 fibroblasts; conditions: human serum supplemented with increasing levels of the substance; 4 hour incubation; low SR-BI and ABCA1 expression; FIG. 1C
Procedure: as §1, with “1C” for “1B”, “W138VA13 human embryonic lung fibroblasts” for “J774 mouse macrophages treated with cAMP to upregulate the expression of ABCA1”
(§2) FIGS. 1A–1F illustrate that the expression of SR-BI and ABCA1 independently in cultured cells can be used to detect cell cholesterol efflux to human sera with different levels of apolipoprotein AI, high density lipoprotein (HDL) or high density lipoprotein3 (HDL3). […] The control and supplemented serum samples were then diluted in tissue culture medium and incubated with the indicated cell systems; the efflux of cell cholesterol was measured after a 4 hour incubation period.
FIG. 1C is a graph of the percentage of efflux of cell cholesterol after a four hour incubation period of W138VA13 human embryonic lung fibroblasts with serum supplemented with HDL3 and serum supplemented with Apo AI. FIG. 1C illustrates that W138VA13 human embryonic lung fibroblasts have low expression levels of both proteins and cell cholesterol efflux is unresponsive to either type of serum supplementation.

[3] = tested on: W138VA13 human embryonic lung fibroblasts pretreated with 9-cis retanoic acid (9CRA) and 22 hydroxycholesterol to upregulated ABCA1; assay: Cell cholesterol efflux to supplemented human serum, W138VA13 fibroblasts with ABCA1 upregulated; conditions: human serum supplemented with increasing levels of the substance; 4 hour incubation; FIG. 1E
Procedure: (§3) Numbers on X axis represent the fold increase of HDL3 or Apo AI with the X axis of 1 being the unsupplemented serum.
as §2

[4] = tested on: W138VA13 human embryonic lung fibroblasts transfected with SR-BI with ABCA1 upregulated; assay: Cell cholesterol efflux to supplemented human serum, W138VA13 fibroblasts with SR-BI transfected and ABCA1 upregulated; conditions: human serum supplemented with increasing levels of the substance; 4 hour incubation; FIG. 1F
Procedure: as §3, §2

## Apo AI: apolipoprotein AI added to human serum in increasing levels
[1]
  percentage of efflux of cell cholesterol: enhanced cholesterol efflux
[2]
  percentage of efflux of cell cholesterol: unresponsive
[3]
  percentage of efflux of cell cholesterol: enhanced
[4]
  efflux of cell cholesterol: enhanced efflux
